Source: publication PMC3303611 (Journal of Medicinal Chemistry, 2012)
Like-named read-outs stand apart in the source and are kept apart here.

What was measured:
human H3 receptors = conditions: human vs rat H3; known, ref not given; cited from earlier work
rat H3 receptors = conditions: known, ref not given; cited from earlier work
brain H3 receptors = test: PET imaging of [18F]9 in monkey; assay type: in vivo, rhesus monkey; conditions: [18F]9 Vt, two monkeys, ciproxifan pretreatment
H3 receptor = H3 receptor (Homo sapiens, UniProt Q9Y5N1); test: GTP-γ-S assay performed by the Psychoactive Drug Screening Program; assay type: biochemical
H3 receptor, sequence (Q9Y5N1 whole entry): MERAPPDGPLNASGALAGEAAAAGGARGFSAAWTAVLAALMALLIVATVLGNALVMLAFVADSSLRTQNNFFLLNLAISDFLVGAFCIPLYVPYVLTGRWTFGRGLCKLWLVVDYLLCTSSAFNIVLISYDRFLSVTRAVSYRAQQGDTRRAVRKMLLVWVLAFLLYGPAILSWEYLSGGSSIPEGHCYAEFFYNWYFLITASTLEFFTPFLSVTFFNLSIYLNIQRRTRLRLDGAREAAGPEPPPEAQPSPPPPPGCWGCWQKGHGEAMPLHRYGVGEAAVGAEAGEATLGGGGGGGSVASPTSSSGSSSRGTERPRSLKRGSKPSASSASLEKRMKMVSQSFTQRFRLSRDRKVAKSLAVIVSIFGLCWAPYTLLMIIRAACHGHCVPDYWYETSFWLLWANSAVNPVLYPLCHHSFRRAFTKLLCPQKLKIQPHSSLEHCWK

Structure (SMILES): O=C(c1ccc(OCCCc2c[nH]cn2)cc1)C1CC1 [ciproxifan]
- lower affinity for human H3 receptors than for rat H3 receptors (human H3 receptors): over 100 fold
- Ki (rat H3 receptors): 0.51 nM
- Mean Vt decrease (brain H3 receptors; Cerebellum): -26%
- Mean Vt decrease (brain H3 receptors; Frontal cortex): -34%
- Mean Vt decrease (brain H3 receptors; Hippocampus): -33%
- Mean Vt decrease (brain H3 receptors; Striatum): -26%
- Mean Vt decrease (brain H3 receptors; Thalamus): -33%

Structure (SMILES): C[C@@H]1CCCN1CCc1cc2cc(C(=O)c3ccc(F)cc3)ccc2o1 [Compound 9, (R)-(2-(2-(2-methylpyrrolidin-1-yl)ethyl)benzofuran-5-yl)(4-fluorophenyl)methanone]
- intrinsic activity (H3 receptor): inverse agonists

Structure (SMILES): C[C@@H]1CCCN1CCc1cc2cc(C(=O)c3ccc([N+](=O)[O-])cc3)ccc2o1 [Compound 12, (R)-(2-(2-(2-Methylpyrrolidin-1-yl)ethyl)benzofuran-5-yl)(4-nitrophenyl)methanone]
- intrinsic activity (H3 receptor; GTP-γ-S assay, Psychoactive Drug Screening Program): inverse agonists
